Experimental data published in US20260285857A1, “BICYCLIC AND HETEROCYCLIC AMIDE COMPOUNDS” (priority 2024, published 2026).

Tested on: immunoglobulin light chain protein WIL-FL T46L
Test: Differential scanning fluorimetry (thermal shift) assay
Type: binding
Conditions: Table A; temperature shift [Tm]compound-[Tm]vehicle; recombinant WIL-FL T46L

| SMILES | DSF |
| --- | --- |
| Cc1cc(N2CC[C@](C)(c3ccccc3)C2)cn2nc(C(=O)N3CC4CC3CO4)nc12 (some centres unmarked) [Compound 124] | ***** (>2.5° C.=*****) |
| COC(=O)[C@]1(C)CCN(C(=O)c2nc3c(C)cc(N4CC[C@](C)(c5ccccc5)C4)cn3n2)C1 [Compound 125] | ***** (>2.5° C.=*****) |
| Cc1cc(N2CC[C@](C)(c3ccccc3)C2)cn2nc(C(=O)N3CC[C@@](C)(C(=O)O)C3)nc12 [Compound 126] | ***** (>2.5° C.=*****) |
| Cc1cc(N2CC[C@](C)(c3ccccc3)C2)cn2nc(C(=O)NC34COC(C#N)(C3)C4)nc12 [Compound 127] | ***** (>2.5° C.=*****) |
| Cc1cc(N2CC[C@](C)(c3ccccc3)C2)cn2nc(C(=O)N3CC(O)C3)nc12 [Compound 128] | ***** (>2.5° C.=*****) |
| Cc1cc(N2CC[C@](C)(c3ccccc3)C2)cn2nc(C(=O)NC3C4COCC43)nc12 (some centres unmarked) [Compound 129] | ***** (>2.5° C.=*****) |
| Cc1cc(N2CC[C@](C)(c3ccccc3)C2)cn2nc(C(=O)NCCC(C)(C)O)nc12 [Compound 130] | ***** (>2.5° C.=*****) |
| Cc1cc(N2CC[C@](C)(c3ccccc3)C2)cn2nc(C(=O)NC3(CO)CCOCC3)nc12 [Compound 131] | ***** (>2.5° C.=*****) |
| Cc1cc(N2CC[C@](C)(c3ccccc3)C2)cn2nc(C(=O)NC34CC(O)(C3)C4)nc12 [Compound 132] | ***** (>2.5° C.=*****) |
| Cc1noc([C@@H]2C[C@H](NC(=O)c3nc4c(C)cc(N5CC[C@](C)(c6ccccc6)C5)cn4n3)CN2)n1 [Compound 133] | ***** (>2.5° C.=*****) |
| Cc1cc(N2CC[C@](C)(c3ccccc3)C2)cn2nc(C(=O)N[C@H]3CNC[C@@H]3C(=O)O)nc12 [Compound 134] | ***** (>2.5° C.=*****) |
| Cc1cc(N2CC[C@](C)(c3ccccc3)C2)cn2nc(C(=O)N3CCC4NC(=O)CC43)nc12 (some centres unmarked) [Compound 135] | ***** (>2.5° C.=*****) |
| Cc1cc(N2CC[C@](C)(c3ccccc3)C2)cn2nc(C(=O)NCC(C)(C)C(=O)O)nc12 [Compound 136] | ***** (>2.5° C.=*****) |
| Cc1cc(N2CC[C@](C)(c3ccccc3)C2)cn2nc(C(N)=O)nc12 [Compound 137] | ***** (>2.5° C.=*****) |
| COCC(C)(O)CNC(=O)c1nc2c(C)cc(N3CC[C@](C)(c4ccccc4)C3)cn2n1 (some centres unmarked) [Compound 138] | ***** (>2.5° C.=*****) |
| Cc1cc(N2CC[C@](C)(c3ccccc3)C2)cn2nc(C(=O)N[C@@H](C)CO)nc12 [Compound 139] | ***** (>2.5° C.=*****) |
| CO[C@@H]1CNC[C@H]1NC(=O)c1nc2c(C)cc(N3CC[C@](C)(c4ccccc4)C3)cn2n1 [Compound 140] | ***** (>2.5° C.=*****) |
| Cc1cc(N2CC[C@](C)(c3ccccc3)C2)cn2nc(C(=O)NC3COCC3(C)O)nc12 (some centres unmarked) [Compound 141] | ***** (>2.5° C.=*****) |
| Cc1cc(N2CC[C@](C)(c3ccccc3)C2)cn2nc(C(=O)N[C@@H]3CCC[C@@H]3O)nc12 [Compound 142] | ***** (>2.5° C.=*****) |
| COC(=O)CC1CCN(C(=O)c2nc3c(C)cc(N4CC[C@](C)(c5ccccc5)C4)cn3n2)C1 (some centres unmarked) [Compound 143] | ***** (>2.5° C.=*****) |
| Cc1cc(N2CC[C@](C)(c3ccccc3)C2)cn2nc(C(=O)N3CCN(S(C)(=O)=O)CC3)nc12 [Compound 144] | ***** (>2.5° C.=*****) |
| Cc1cc(N2CC[C@](C)(c3ccccc3)C2)cn2nc(C(=O)NC3COC4(CCOC4)C3)nc12 (some centres unmarked) [Compound 145] | ***** (>2.5° C.=*****) |

| SMILES | DSF |
| --- | --- |
| Cc1cc(N2CC[C@](C)(c3ccccc3)C2)cn2nc(C(=O)N3CC4(O)CC3C4)nc12 [Compound 146] | ***** (>2.5° C.=*****) |
| Cc1cc(N2CC[C@](C)(c3ccccc3)C2)cn2nc(C(=O)NC3CCS(=N)(=O)C3)nc12 (some centres unmarked) [Compound 147] | ***** (>2.5° C.=*****) |
| COC(CO)CNC(=O)c1nc2c(C)cc(N3CC[C@](C)(c4ccccc4)C3)cn2n1 (some centres unmarked) [Compound 148] | ***** (>2.5° C.=*****) |
| Cc1cc(N2CC[C@](C)(c3ccccc3)C2)cn2nc(C(=O)N[C@H]3CNC[C@H]3F)nc12 [Compound 149] | ***** (>2.5° C.=*****) |
| Cc1cc(N2CC[C@](C)(c3ccccc3)C2)cn2nc(C(=O)NC3CNCC3(F)F)nc12 (some centres unmarked) [Compound 150] | ***** (>2.5° C.=*****) |
| Cc1cc(N2CC[C@](C)(c3ccccc3)C2)cn2nc(C(=O)NC3COC4(CNC4)C3)nc12 (some centres unmarked) [Compound 152] | ***** (>2.5° C.=*****) |
| Cc1cc(N2CC[C@](C)(c3ccccc3)C2)cn2nc(C(=O)NC(C)(C)CO)nc12 [Compound 153] | ***** (>2.5° C.=*****) |
| Cc1cc(N2CC[C@](C)(c3ccccc3)C2)cn2nc(C(=O)NC3CCC(F)(F)C3)nc12 (some centres unmarked) [Compound 154] | ***** (>2.5° C.=*****) |
| Cc1cc(N2CC[C@](C)(c3ccccc3)C2)cn2nc(C(=O)NC34CC(CO)(C3)C4)nc12 [Compound 155] | ***** (>2.5° C.=*****) |
| Cc1cc(N2CC[C@](C)(c3ccccc3)C2)cn2nc(C(=O)NC3CCN(N4C[C@@H](O)[C@@H](O)C4)C3)nc12 (some centres unmarked) [Compound 156] | ***** (>2.5° C.=*****) |
| Cc1cc(N2CC[C@](C)(c3ccccc3)C2)cn2nc(C(=O)N[C@H]3COCC[C@@H]3O)nc12 [Compound 157] | ***** (>2.5° C.=*****) |
| Cc1cc(N2CC[C@](C)(c3ccccc3)C2)cn2nc(C(=O)N3CC4C(C3)C4C(=O)O)nc12 (some centres unmarked) [Compound 158] | ***** (>2.5° C.=*****) |
| Cc1cc(N2CC[C@](C)(c3ccccc3)C2)cn2nc(C(=O)N3CC[C@@](C)(O)C3)nc12 [Compound 159] | ***** (>2.5° C.=*****) |
| Cc1cc(N2CC[C@](C)(c3ccccc3)C2)cn2nc(C(=O)N[C@@H]3CC[C@H]3O)nc12 [Compound 160] | ***** (>2.5° C.=*****) |
| Cc1cc(N2CC[C@](C)(c3ccccc3)C2)cn2nc(C(=O)N[C@@H]3CC[C@@H]3O)nc12 [Compound 161] | ***** (>2.5° C.=*****) |
| Cc1cc(N2CC[C@](C)(c3ccccc3)C2)cn2nc(C(=O)N[C@@H]3CN[C@H](C(C)(C)O)C3)nc12 [Compound 162] | ***** (>2.5° C.=*****) |
| Cc1cc(N2CC[C@](C)(c3ccccc3)C2)cn2nc(C(=O)NC3(C(=O)O)CC3)nc12 [Compound 163] | ***** (>2.5° C.=*****) |
| Cc1cc(N2CC[C@](C)(c3ccccc3)C2)cn2nc(C(=O)N(C)C3(C(=O)O)CC3)nc12 [Compound 164] | ***** (>2.5° C.=*****) |
| Cc1cc(N2CC[C@](C)(c3ccccc3)C2)cn2nc(C(=O)NCC3(C(=O)O)CC3)nc12 [Compound 165] | ***** (>2.5° C.=*****) |
| COC1CNCC1NC(=O)c1nc2c(C)cc(N3CC[C@](C)(c4ccccc4)C3)cn2n1 (some centres unmarked) [Compound 166] | ***** (>2.5° C.=*****) |
| Cc1cc(N2CC[C@](C)(c3ccccc3)C2)cn2nc(C(=O)N[C@H]3C[C@](C)(O)C3)nc12 [Compound 167] | ***** (>2.5° C.=*****) |
| Cc1cc(N2CC[C@](C)(c3ccccc3)C2)cn2nc(C(C)(C)OC3CCNC3)nc12 (some centres unmarked) [Compound 168] | **** (>1.5-2.5° C.=****) |

| SMILES | DSF |
| --- | --- |
| Cc1cc(N2CC[C@](C)(c3ccccc3)C2)cn2nc(C(=O)NC(C)(C)C(=O)O)nc12 [Compound 169] | ***** (>2.5° C.=*****) |
| CNC(=O)c1nc2c(C)cc(N3CC[C@](C)(c4ccccc4)C3)cn2n1 [Compound 170] | ***** (>2.5° C.=*****) |
| Cc1cc(N2CC[C@](C)(c3ccccc3)C2)cn2nc(C(=O)NCC34CCCN3CC(F)C4)nc12 (some centres unmarked) [Compound 171] | ***** (>2.5° C.=*****) |
| Cc1cc(N2CC[C@](C)(c3ccccc3)C2)cn2nc(C(=O)NC34COC(C(=O)O)(C3)C4)nc12 [Compound 172] | ***** (>2.5° C.=*****) |
| Cc1cc(N2CC[C@](C)(c3ccccc3)C2)cn2nc(C(=O)NC34COC(CO)(C3)C4)nc12 [Compound 173] | ***** (>2.5° C.=*****) |
| Cc1cc(N2CC[C@](C)(c3ccccc3)C2)cn2nc(C(=O)N3CC[C@H](O)C3)nc12 [Compound 174] | ***** (>2.5° C.=*****) |
| COC(=O)C12CCC(NC(=O)c3nc4c(C)cc(N5CC[C@](C)(c6ccccc6)C5)cn4n3)(C1)C2 [Compound 175] | ***** (>2.5° C.=*****) |
| Cc1cc(N2CC[C@](C)(c3ccccc3)C2)cn2nc(C(=O)N3CCOC(C(=O)O)C3)nc12 (some centres unmarked) [Compound 176] | ***** (>2.5° C.=*****) |
| Cc1cc(N2CC[C@](C)(c3ccccc3)C2)cn2nc(C(=O)N3CCOC4(CNC4)C3)nc12 [Compound 177] | ***** (>2.5° C.=*****) |
| Cc1cc(N2CC[C@](C)(c3ccccc3)C2)cn2nc(C(=O)N3CCCC(C)(C(=O)O)C3)nc12 (some centres unmarked) [Compound 178] | ***** (>2.5° C.=*****) |
| Cc1cc(N2CC[C@](C)(c3ccccc3)C2)cn2nc(C(=O)NC3CNC(C)(C(=O)O)C3)nc12 (some centres unmarked) [Compound 179] | ***** (>2.5° C.=*****) |
| Cc1cc(N2CC[C@](C)(c3ccccc3)C2)cn2nc(C(=O)NC3COCC3(C)C(=O)O)nc12 (some centres unmarked) [Compound 180] | ***** (>2.5° C.=*****) |
| Cc1cc(N2CC[C@](C)(c3ccccc3)C2)cn2nc(C(=O)NC34CCC(C(=O)O)(C3)OC4)nc12 (some centres unmarked) [Compound 181] | ***** (>2.5° C.=*****) |
| Cc1cc(N2CC[C@](C)(c3ccccc3)C2)cn2nc(C(=O)N3CCC(OCC(=O)O)CC3)nc12 [Compound 182] | ***** (>2.5° C.=*****) |
| Cc1cc(N2CC[C@](C)(c3ccccc3)C2)cn2nc(C(=O)NC34COC(C3)C4)nc12 [Compound 183] | ***** (>2.5° C.=*****) |
| Cc1cc(N2CC[C@](C)(c3ccccc3)C2)cn2nc(C(=O)O)nc12 [Compound 184] | ** (>0.5-1 °C =**) |
| Cc1cc(N2CC[C@](C)(c3ccccc3)C2)cn2nc(C(=O)NC34CNCC3C4)nc12 (some centres unmarked) [Compound 185] | ***** (>2.5° C.=*****) |
| Cc1cc(N2CC[C@](C)(c3ccccc3)C2)cn2nc(C(=O)N[C@@H]3CNCC34CC4)nc12 [Compound 186] | ***** (>2.5° C.=*****) |
| Cc1cc(N2CC[C@](C)(c3ccccc3)C2)cn2nc(C(=O)N[C@H]3CNCC34CC4)nc12 [Compound 187] | ***** (>2.5° C.=*****) |
| CCC(=O)N1CCC(NC(=O)c2nc3c(C)cc(N4CC[C@](C)(c5ccccc5)C4)cn3n2)CC1 [Compound 188] | ***** (>2.5° C.=*****) |
| Cc1cc(N2CC[C@](C)(c3ccccc3)C2)cn2nc(C(=O)NC3(C)CCNC3)nc12 (some centres unmarked) [Compound 189] | ***** (>2.5° C.=*****) |
